From patent US20250313560A1, “Novel bicyclic benzylamido pyridine derivatives as SOS1 inhibitors” (Boehringer Ingelheim International GmbH, priority 2024, published 2025) come the findings set out here.

The structures appear in SMILES notation. Like-named read-outs stand apart in the source and are kept apart here.

One series has as its target SOS1 and KRAS G12C (Homo sapiens (Human), UniProt Q07889). The experiment in a line: KRAS::SOS1 AlphaScreen binding assay (KRAS G12C). As to conditions: average of at least two measurements. On the procedure:
(§1) Low IC50 values are indicative of high potency of the SOS1 inhibitor compound in this assay setting:
(§2) • GST-tagged SOS1 (564_1049_GST_TEV_ECO) produced in-house • 6xHis-Tev-K-RasG12D/G12C(1-169)Avi produced in-house • GDP (Sigma Cat No G7127) • AlphaLISA Glutathione Acceptor Beads (PerkinElmer, Cat No AL109) • AlphaScreen Streptavidin Donor Beads (PerkinElmer Cat No 6760002) • Assay plates: Proxiplate-384 PLUS, white (PerkinElmer, Cat No 6008289)
(§3) [formula] • KRAS::SOS1 GDP mix: • 7.5 nM (final assay concentration) K-RasG12C, 10 nM (final assay concentration) K-RasG12D, 10 μM (final assay concentration) GDP and 5 nM (final assay concentration) GST-SOS1 are mixed in assay buffer prior to use and kept at rt. Bead mix: • AlphaLISA Glutathione Acceptor Beads and AlphaScreen Streptavidin Donor Beads are mixed in the dark in assay buffer at a concentration of 10 μg/mL (final assay concentration) each prior to use and kept at rt.
(§4) Compounds are diluted to a final start concentration of 100 μM and are tested in duplicate. Assay-ready plates (ARPs) are generated using an Access Labcyte Workstation with a Labcyte Echo 550 or 555 acoustic dispenser. For compound a start concentration of 100 μM, 150 nL of compound solution is transferred per well in 11 concentrations in duplicate with serial 1:5 dilutions.
(§5) The assay is run using a fully automated robotic system in a darkened room below 100 Lux. 10 μL of KRAS::SOS1 GDP mix is added into columns 1-24 to the 150 nL of compound solution (final dilution in the assay 1:100, final DMSO concentration 1%).
(§6) After a 30 minute incubation time, 5 μL of bead mix is added into columns 1-23. Plates are kept at rt in a darkened incubator. After a further 60 minutes incubation, the signal is measured using a PerkinElmer Envision HTS Multilabel Reader using the AlphaScreen specifications from PerkinElmer. Each plate contains the following controls:
(§7) diluted DMSO+KRAS::SOS1 GDP mix+bead mix
(§8) diluted DMSO+KRAS::SOS1 GDP mix
(§9) Result calculation: IC50 values are calculated and analyzed using a 4 parametric logistic model.
(§10) Table 1: Inhibition values for KRAS G12C as well as for KRAS G12D. […] The value indicates an average value of at least two measurements.

The next series has as its target SOS1 and KRAS G12D (Homo sapiens (Human), UniProt Q07889). As to the kind of experiment: KRAS::SOS1 AlphaScreen binding assay (KRAS G12D). As to conditions: average of at least two measurements. The procedure: as §1, §2, §3, §4, §5, §6, §7, §8, §9, §10
Series [1] concerns ERK phosphorylation in NCI-H358 SOS2 KO cells (KRAS G12C). As to the kind of experiment: Erk phosphorylation assay. It is filed as cell-based, human. The note with it: EGF stimulated, average of at least two measurements, read-out: pERK IC50. The procedure: Low IC50 values are indicative of high potency of the SOS1 inhibitor compounds in this assay setting.
ERK phosphorylation assays are performed using the following human cell line: • NCI-H358 SOS2 KO (Hofmann, Gmachl, Ramharter et al, Cancer Discov. 2021, 11(1):142-15): human lung cancer with a KRAS G12C mutation;
NCI-H358 SOS2 KO are seeded at 50000 cells per well in 60 μL of DMEM with 2% FBS, in Greiner TC 384 plates. The cells are incubated overnight in an incubator at 37° C. and 5% CO2 in a humidified atmosphere. 60 nL compound solution (10 mM DMSO stock solution) is then added using a Beckman Coulter Labcyte Echo 550 device. After 50 min incubation in the aforementioned incubator, 5 nl EGF are added to each well for a final concentration of approx. 8 ng/mL using a Beckman Coulter Labcyte Echo 550 device and cells are incubated for another 10-15 minutes before lysis. The medium is removed, and the cells are lysed by addition of 20 μL of 1.6-fold lysis buffer from the AlphaLISA SureFire Ultra pERK1/2 (Thr202/Tyr204) Assay Kit with added protease inhibitors. After 20 minutes of incubation at rt with shaking, 6 μL of each lysate sample is transferred to a 384-well Proxiplate and analyzed for pERK (Thr202/Tyr204) with the AlphaLISA SureFire Ultra pERK1/2 (Thr202/Tyr204) Assay Kit. 3 μL Acceptor Mix and 3 μL Donor Mix are added under subdued light and incubated for 2 h at rt in the dark, before the signal is measured on a Perkin Elmer Envision plate reader using 384 AlphaScreen settings for Proxiplates. Data are fitted by iterative calculation with variable hill slope. The sigmoidal curve slope is fitted using a default fitting curve to ascertain IC50 values.
Table 2: Erk Phosphorylation assay. The value indicates an average value of at least two measurements.

For a further series, the target named is P450 3A4 (Homo sapiens (Human), UniProt P08684). The experiment in a line: Cytochrome P450 isoenzyme inhibition assay (P450 3A4, midazolam). As to conditions: human liver microsomes, Midazolam as substrate; read-out: CYP3A4 inhibition IC50. Type of series: in vitro ADME. The procedure:
For the following cytochrome P450 isoenzymes, these substrates and metabolic reactions are monitored: P450 3A4: hydroxylation of Midazolam (MDZ).
The final incubation volume contains TRIS buffer (0.1 M), MgCl2 (5 mM), a certain concentration of human liver microsomes dependent on the P450 isoenzyme measured (P450 3A4: 0.1 mg/ml) and a certain concentration of the individual substrate for each isoenzyme (P450 3A4: Midazolam 5 μM).
The effect of the test compound is determined at five different concentrations in duplicate (e.g. highest concentration 50 μM with subsequent serial 1:4 dilutions) or without test compound (high control). Following a short preincubation period, reactions are started with the cofactor (NADPH, 1 mM) and stopped by cooling the incubation down to 8° C. and subsequently by addition of one volume of ACN. An internal standard solution—usually the stable isotope of the formed metabolite—is added after quenching of incubations. Peak area analyte (=metabolite formed) and internal standard is determined by LC-MS/MS. The resulting peak area ratio analyte to internal standard in these incubations is compared to a control activity containing no test compound. Within each of the assay runs, the IC50 of a positive control inhibitor dependent on the P450 isoenzyme measured (P450 3A4: ketoconazole) is determined. The assay results are plotted against compound concentrations to calculated IC50 values (half maximal inhibitory concentrations) for inhibitory compounds utilizing Software IDBS E-WorkBook.
Table 4: Inhibition of P450 isoenzyme 3A^4.

A further series has as its system human hepatocytes. As to the kind of experiment: Metabolic stability in human hepatocytes. As to conditions: 1 μM test compound, 50% human serum, percentage of liver blood flow.
Where [2] appears, read: Homo sapiens, NCI-H358, NCI-H358 SOS2 KO cells.

Chain of SOS1 and KRAS G12C (Q07889 564-1049, stated change not applied): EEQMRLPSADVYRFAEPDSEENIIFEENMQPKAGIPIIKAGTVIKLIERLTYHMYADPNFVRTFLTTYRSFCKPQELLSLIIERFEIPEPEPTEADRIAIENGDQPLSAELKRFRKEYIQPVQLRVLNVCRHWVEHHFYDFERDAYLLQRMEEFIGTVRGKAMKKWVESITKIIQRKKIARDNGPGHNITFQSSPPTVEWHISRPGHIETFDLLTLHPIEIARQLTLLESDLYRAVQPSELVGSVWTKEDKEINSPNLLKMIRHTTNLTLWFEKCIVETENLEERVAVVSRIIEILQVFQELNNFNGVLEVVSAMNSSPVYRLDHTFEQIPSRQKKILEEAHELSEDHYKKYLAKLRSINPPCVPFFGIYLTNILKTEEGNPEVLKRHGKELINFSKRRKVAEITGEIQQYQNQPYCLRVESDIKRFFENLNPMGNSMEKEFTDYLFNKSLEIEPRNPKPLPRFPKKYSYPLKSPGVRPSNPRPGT
Chain of SOS1 and KRAS G12D (Q07889 564-1049, stated change not applied): as above
Chain of P450 3A4 (P08684 whole entry): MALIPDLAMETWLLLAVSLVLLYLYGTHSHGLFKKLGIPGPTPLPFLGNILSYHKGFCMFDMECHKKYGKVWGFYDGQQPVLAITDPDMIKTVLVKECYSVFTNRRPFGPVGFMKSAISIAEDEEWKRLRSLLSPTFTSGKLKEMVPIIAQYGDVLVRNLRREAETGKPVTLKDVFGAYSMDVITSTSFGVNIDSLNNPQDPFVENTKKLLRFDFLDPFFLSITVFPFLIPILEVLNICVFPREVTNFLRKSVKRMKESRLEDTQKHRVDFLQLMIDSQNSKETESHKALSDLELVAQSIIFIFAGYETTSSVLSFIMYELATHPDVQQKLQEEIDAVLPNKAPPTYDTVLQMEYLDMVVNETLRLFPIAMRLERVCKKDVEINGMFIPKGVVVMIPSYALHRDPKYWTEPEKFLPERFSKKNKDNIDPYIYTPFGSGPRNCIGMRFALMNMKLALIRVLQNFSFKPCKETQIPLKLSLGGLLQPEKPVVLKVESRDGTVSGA

`C[C@@H](NC(=O)c1cc(N2CCC(N3CC4CC4C3CO)CC2)c2ncnn2c1)c1cccc(C(F)F)c1F` (single isomer, unassigned) [Example cis-E11a]: the IC50 is 22 nM at SOS1 and KRAS G12C; 15 nM on SOS1 and KRAS G12D; 173 nM in series [1] (setting [2]); more than 50000 nM at P450 3A4. The “Hepatic clearance - QH[%] in human hepatocytes” value (“Hepatic clearance - QH[%]” below) with human hepatocytes was found to be 38%.

As to `C[C@@H](NC(=O)c1cc(N2CCC(NC3COCC3O)CC2)c2ncnn2c1)c1cccc(C(F)(F)F)c1F` (single isomer, unassigned) [Example cis-E41a], the IC50 on SOS1 and KRAS G12C is 50 nM; at SOS1 and KRAS G12D, 38 nM; in series [1] (NCI-H358 SOS2 KO cells), 463 nM; at P450 3A4 it was more than 50000 nM. In addition, the “Hepatic clearance - QH[%]” value in the series on human hepatocytes is reported as 37%.

As to `C[C@@H](NC(=O)c1cc(N2CCC(NC3CCCC3(C)O)CC2)c2ncnn2c1)c1cccc(C(F)(F)F)c1F` (single isomer, unassigned) [Example trans-E53a], the IC50 at SOS1 and KRAS G12C is 24 nM; on SOS1 and KRAS G12D, 24 nM; in series [1] (NCI-H358 SOS2 KO cells), 143 nM; on P450 3A4 it was more than 50000 nM. Moreover, the “Hepatic clearance - QH[%]” value in the series on human hepatocytes amounted to 45%.

Regarding `C[C@@H](NC(=O)c1cc(N2CCC(N3CCO[C@H](CO)C3)CC2)c2ncnn2c1)c1cccc(C(F)F)c1F` [Example E14], the IC50 was 69 nM at SOS1 and KRAS G12C; 51 nM on SOS1 and KRAS G12D; 490 nM in series [1] (setting [2]); more than 50000 nM on P450 3A4. The “Hepatic clearance - QH[%]” value with human hepatocytes was determined as 31%.

Regarding `C[C@@H](NC(=O)c1cc(N2CCC(N3CCCC(O)CC3)CC2)c2ncnn2c1)c1cccc(C(F)(F)F)c1F` (stereo partly shown) [Example E43b], in the series on human hepatocytes, the “Hepatic clearance - QH[%]” value is 25%.

`C[C@@H](NC(=O)c1cc(N2CCC(N3CCO[C@@H](CO)C3)CC2)c2ncnn2c1)c1cccc(C(F)F)c1F` [Example E15]: the IC50 at SOS1 and KRAS G12C is 68 nM; at SOS1 and KRAS G12D, 46 nM; in series [1] (setting [2]), 554 nM; at P450 3A4 it was more than 50000 nM. Besides, in the series on human hepatocytes, the “Hepatic clearance - QH[%]” value was found to be 31%.

Take `C[C@@H](NC(=O)c1cc(N2CCC(N3CCCCC3)CC2)c2ncnn2c1)c1cccc(C(F)(F)F)c1F` [Example E49]: the IC50 at SOS1 and KRAS G12C was 49 nM; at SOS1 and KRAS G12D, 43 nM; in series [1] (setting [2]), 250 nM; on P450 3A4 it was more than 50000 nM. In the series on human hepatocytes, the “Hepatic clearance - QH[%]” value is listed as 23%.

Take `C[C@@H](NC(=O)c1cc(N2CCC(N3CC4CC4C3CO)CC2)c2ncnn2c1)c1cccc(C(F)F)c1F` (single isomer, unassigned) [Example cis-E11b]: the IC50 on SOS1 and KRAS G12C was 28 nM; at SOS1 and KRAS G12D it was 19 nM; in series [1] (NCI-H358 SOS2 KO cells), 145 nM; at P450 3A4 it was more than 50000 nM. Further, the “Hepatic clearance - QH[%]” value with human hepatocytes is 27%.

For the compound `C[C@@H](NC(=O)c1cc(N2CCC3CCNC3C2)c2ncnn2c1)c1cccc(C(F)(F)F)c1F` (single isomer, unassigned) [Example cis-E52a], the IC50 at SOS1 and KRAS G12C was 59 nM; on SOS1 and KRAS G12D, 58 nM; in series [1] (NCI-H358 SOS2 KO cells), 115 nM; at P450 3A4, more than 50000 nM. Further, in the series with human hepatocytes, the “Hepatic clearance - QH[%]” value turned out to be 7%.

As to `C[C@@H](NC(=O)c1cc(N2CCC(N3CCCC(O)CC3)CC2)c2ncnn2c1)c1cccc(C(F)F)c1F` (single isomer, unassigned) [Example E17a], the IC50 is 39 nM on SOS1 and KRAS G12C; 28 nM at SOS1 and KRAS G12D; 94 nM in series [1] (NCI-H358 SOS2 KO cells); more than 50000 nM on P450 3A4. Moreover, in the series with human hepatocytes, the “Hepatic clearance - QH[%]” value was determined as 13%.

In the case of `C[C@@H](NC(=O)c1cc(N2CCC(N3CCC4(CC4)C3)CC2)c2ncnn2c1)c1cccc(C(F)(F)F)c1F` [Example E33], the IC50 at SOS1 and KRAS G12C is 80 nM; at SOS1 and KRAS G12D, 73 nM; in series [1] (setting [2]), 326 nM; at P450 3A4, more than 50000 nM. Also, the “Hepatic clearance - QH[%]” value in the series on human hepatocytes was 15%.

As for `C[C@@H](NC(=O)c1cc(N2CCC(N(C)CC3(O)CC3)CC2)c2ncnn2c1)c1cccc(C(F)F)c1F` [Example E13], the IC50 was 52 nM at SOS1 and KRAS G12C; 54 nM at SOS1 and KRAS G12D; 288 nM in series [1] (setting [2]); more than 50000 nM on P450 3A4. Also, in the series on human hepatocytes, the “Hepatic clearance - QH[%]” value stood at 21%.

On to `C[C@@H](NC(=O)c1cc([C@H]2CC[C@H](N3CCC(F)C(O)C3)CC2)c2ncnn2c1)c1cccc(C(F)(F)F)c1F` (single isomer, unassigned) [Example trans-E70a], for which the IC50 is 29 nM on SOS1 and KRAS G12C; 34 nM at SOS1 and KRAS G12D; 259 nM in series [1] (setting [2]); more than 50000 nM at P450 3A4. In addition, the “Hepatic clearance - QH[%]” value in the series on human hepatocytes is reported as 25%.
